Active and inactive are the calls of the source.
What was measured:
[1] = target: Peroxisome proliferator-activated receptor gamma/Nuclear receptor coactivator 1 (Homo sapiens, UniProt P37231); experiment: (§1) TR-FRET dose response biochemical High Throughput Screening assay for agonists of the steroid receptor coactivator 1 (SRC-1) recruitment by the peroxisome proliferator-activated receptor gamma (PPAR gamma): non-selective agonists. [Related pubchem assays (depositor defined):AID1300, AID1808, AID504735, AID631]; type: protein assay
Sequence of Peroxisome proliferator-activated receptor gamma/Nuclear receptor coactivator 1 (P37231 whole entry): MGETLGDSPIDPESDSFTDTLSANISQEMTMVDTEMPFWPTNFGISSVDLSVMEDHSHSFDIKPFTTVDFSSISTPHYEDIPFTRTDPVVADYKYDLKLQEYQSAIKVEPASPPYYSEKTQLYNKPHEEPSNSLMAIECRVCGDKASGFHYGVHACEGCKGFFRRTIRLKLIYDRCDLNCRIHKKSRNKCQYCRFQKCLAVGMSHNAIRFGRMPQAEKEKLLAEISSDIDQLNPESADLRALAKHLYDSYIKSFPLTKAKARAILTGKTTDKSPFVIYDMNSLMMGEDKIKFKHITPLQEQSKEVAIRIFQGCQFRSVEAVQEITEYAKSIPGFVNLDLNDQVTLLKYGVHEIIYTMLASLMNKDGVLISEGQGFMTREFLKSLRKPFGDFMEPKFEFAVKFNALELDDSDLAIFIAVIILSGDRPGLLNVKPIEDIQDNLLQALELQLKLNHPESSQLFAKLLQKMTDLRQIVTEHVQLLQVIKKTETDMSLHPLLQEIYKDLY
Sequence of Peroxisome proliferator-activated receptor gamma/Nuclear receptor coactivator 1 (Q15788 whole entry, further chain): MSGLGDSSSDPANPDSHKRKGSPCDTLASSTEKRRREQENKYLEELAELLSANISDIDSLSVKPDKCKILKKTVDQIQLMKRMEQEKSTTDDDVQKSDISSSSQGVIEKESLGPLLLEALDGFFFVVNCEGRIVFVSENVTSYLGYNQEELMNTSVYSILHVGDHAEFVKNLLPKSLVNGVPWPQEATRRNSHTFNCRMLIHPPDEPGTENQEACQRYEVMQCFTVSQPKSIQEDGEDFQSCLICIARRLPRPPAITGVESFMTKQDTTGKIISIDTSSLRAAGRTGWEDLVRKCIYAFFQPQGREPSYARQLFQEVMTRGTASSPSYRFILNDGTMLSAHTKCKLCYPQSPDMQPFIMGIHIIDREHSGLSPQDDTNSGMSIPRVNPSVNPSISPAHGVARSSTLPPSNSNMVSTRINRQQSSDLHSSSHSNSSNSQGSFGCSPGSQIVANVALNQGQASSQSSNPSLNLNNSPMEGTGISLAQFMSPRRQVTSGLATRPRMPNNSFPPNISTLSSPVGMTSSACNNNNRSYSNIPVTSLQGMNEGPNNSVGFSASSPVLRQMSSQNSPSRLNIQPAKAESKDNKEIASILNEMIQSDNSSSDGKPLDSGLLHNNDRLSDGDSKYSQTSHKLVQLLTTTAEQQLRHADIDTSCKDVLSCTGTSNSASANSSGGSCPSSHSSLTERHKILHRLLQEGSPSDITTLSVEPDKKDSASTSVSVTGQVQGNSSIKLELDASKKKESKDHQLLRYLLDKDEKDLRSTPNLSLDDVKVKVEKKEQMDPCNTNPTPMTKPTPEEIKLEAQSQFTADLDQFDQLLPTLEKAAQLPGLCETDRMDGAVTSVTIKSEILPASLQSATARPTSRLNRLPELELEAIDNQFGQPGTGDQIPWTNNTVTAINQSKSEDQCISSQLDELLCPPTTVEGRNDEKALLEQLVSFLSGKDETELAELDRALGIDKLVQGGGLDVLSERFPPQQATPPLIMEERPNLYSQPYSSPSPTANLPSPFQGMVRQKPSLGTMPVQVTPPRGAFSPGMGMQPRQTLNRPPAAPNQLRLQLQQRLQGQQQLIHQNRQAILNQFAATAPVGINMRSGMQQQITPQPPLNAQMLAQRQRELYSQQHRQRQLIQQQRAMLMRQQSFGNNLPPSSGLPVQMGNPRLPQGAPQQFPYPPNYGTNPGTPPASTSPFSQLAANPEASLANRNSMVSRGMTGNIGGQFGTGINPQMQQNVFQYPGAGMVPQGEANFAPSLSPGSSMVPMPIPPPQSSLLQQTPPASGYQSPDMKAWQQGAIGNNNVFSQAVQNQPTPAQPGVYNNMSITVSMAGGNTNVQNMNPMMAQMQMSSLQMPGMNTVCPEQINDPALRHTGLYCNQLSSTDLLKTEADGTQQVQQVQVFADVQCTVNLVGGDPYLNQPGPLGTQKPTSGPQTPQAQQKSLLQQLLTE

[2] = target: Peroxisome proliferator-activated receptor gamma/Nuclear receptor coactivator 3 (Homo sapiens, UniProt P37231); experiment: as §1, with “3 (SRC-3)” for “1 (SRC-1)”, “assays: 1301 (Confirmation screen.), 1048 (Primary screen.)]” for “assays (depositor defined):AID1300, AID1808, AID504735, AID631]”; type: functional
Sequence of Peroxisome proliferator-activated receptor gamma/Nuclear receptor coactivator 3 (P37231 whole entry): as the sequence (P37231 whole entry) above
Sequence of Peroxisome proliferator-activated receptor gamma/Nuclear receptor coactivator 3 (Q9Y6Q9 whole entry, further chain): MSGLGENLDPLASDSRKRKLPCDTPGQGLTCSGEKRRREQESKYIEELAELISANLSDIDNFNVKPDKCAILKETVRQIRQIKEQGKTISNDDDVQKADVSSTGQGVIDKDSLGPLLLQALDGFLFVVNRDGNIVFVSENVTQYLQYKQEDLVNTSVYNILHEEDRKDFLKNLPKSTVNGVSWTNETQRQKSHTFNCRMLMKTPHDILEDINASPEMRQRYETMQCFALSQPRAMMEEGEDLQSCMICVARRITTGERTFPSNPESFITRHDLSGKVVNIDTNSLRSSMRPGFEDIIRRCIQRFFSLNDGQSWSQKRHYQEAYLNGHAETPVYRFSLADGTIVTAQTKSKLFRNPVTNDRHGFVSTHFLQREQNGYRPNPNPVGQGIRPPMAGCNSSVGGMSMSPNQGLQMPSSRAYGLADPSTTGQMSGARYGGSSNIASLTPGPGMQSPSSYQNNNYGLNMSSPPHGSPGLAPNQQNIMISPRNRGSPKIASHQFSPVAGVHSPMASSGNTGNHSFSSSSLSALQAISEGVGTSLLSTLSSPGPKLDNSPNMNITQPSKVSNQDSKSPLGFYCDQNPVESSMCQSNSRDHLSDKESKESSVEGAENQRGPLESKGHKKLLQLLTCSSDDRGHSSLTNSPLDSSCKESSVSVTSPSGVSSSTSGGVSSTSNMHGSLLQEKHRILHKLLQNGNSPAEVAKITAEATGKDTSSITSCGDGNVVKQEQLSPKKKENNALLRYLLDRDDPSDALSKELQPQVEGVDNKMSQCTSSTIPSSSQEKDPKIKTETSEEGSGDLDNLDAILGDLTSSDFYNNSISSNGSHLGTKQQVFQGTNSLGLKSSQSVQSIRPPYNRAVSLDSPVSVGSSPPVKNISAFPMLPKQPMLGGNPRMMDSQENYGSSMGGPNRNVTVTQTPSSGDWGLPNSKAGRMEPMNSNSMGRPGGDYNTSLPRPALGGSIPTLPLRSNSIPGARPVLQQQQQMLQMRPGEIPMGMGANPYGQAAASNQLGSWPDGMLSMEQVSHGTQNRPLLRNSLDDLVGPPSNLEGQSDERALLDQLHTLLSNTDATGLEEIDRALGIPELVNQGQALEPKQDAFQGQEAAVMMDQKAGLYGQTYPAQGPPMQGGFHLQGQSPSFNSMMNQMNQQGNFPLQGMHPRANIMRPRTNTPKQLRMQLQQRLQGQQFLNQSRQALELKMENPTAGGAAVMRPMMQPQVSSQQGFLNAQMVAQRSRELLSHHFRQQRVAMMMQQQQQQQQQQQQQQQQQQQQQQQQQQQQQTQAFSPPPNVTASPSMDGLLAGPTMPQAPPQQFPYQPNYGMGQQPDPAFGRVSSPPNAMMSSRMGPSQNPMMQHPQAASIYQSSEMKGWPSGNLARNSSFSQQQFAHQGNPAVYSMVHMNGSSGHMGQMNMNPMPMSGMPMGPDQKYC

[3] = target: Peroxisome proliferator-activated receptor gamma/Nuclear receptor coactivator 2 (Homo sapiens, UniProt P37231); experiment: TR-FRET dose response biochemical High Throughput Screening assay for agonists of the steroid receptor coactivator 2 (SRC-2) recruitment by the peroxisome proliferator-activated receptor gamma (PPAR gamma): non-selective agonists. [Related pubchem assays: 1297, 1032 ]; type: functional
[4] = target: T1, Polyadenylate-binding protein 1 (Homo sapiens, UniProt P11940); experiment: PABP1 MLLE–PAM2 interaction inhibitors, dose response, miRNA deadenylation inhibitor project, biochemical, fluorescence polarization, Cy5-PAM2 peptide, secondary (AID 602260); type: functional; details: read-out: IC50_Mean
[5] = target: T1, Polyadenylate-binding protein 1; experiment: PABP1 MLLE–PAM2 binding inhibitor potency, dose response, biochemical, fluorescence polarization, FITC-PAM2 peptide (AID 602259); type: functional; details: read-out: IC50_Mean
[6] = target: T2, Aminopeptidase N (Plasmodium falciparum FcB1/Columbia, UniProt O96935); experiment: P. falciparum M1AAP inhibitors, biochemical, fluorogenic H-Leu-NHMec substrate, 1536-well (AID 1445); set-up: species or system Plasmodium falciparum 3D7, 3D7
T2 sequence (O96935 whole entry): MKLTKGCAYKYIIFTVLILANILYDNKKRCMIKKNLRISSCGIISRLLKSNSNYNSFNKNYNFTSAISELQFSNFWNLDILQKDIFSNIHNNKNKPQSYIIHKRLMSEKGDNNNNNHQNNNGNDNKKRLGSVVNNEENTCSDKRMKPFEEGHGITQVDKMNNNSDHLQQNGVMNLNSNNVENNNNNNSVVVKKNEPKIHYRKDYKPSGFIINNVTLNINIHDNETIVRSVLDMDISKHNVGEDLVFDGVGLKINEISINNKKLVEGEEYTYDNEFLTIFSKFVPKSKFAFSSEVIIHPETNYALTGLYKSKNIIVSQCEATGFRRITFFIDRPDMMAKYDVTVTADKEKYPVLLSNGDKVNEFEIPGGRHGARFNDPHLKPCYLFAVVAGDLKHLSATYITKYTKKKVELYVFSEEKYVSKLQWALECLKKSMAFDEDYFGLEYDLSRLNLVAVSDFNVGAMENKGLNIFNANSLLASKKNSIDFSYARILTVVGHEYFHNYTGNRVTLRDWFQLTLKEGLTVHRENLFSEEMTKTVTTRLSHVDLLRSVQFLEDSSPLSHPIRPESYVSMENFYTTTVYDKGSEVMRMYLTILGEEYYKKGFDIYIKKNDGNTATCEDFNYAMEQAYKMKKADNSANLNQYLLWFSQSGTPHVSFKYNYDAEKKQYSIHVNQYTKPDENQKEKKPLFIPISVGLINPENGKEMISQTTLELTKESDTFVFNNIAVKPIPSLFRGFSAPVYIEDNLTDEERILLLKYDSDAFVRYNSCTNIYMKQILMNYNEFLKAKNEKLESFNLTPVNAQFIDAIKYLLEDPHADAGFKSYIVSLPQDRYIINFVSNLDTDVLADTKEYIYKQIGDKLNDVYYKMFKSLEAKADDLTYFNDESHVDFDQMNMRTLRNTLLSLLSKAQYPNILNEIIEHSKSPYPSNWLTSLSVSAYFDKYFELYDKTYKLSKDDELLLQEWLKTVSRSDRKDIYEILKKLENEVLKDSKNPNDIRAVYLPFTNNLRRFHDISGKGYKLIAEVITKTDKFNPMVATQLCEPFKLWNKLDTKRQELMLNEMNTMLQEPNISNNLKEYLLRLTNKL

[7] = target: Cytochrome P450 2D6 (Homo sapiens, UniProt P10635);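 further: CYP2D6 member of a cytochrome P450 panel assay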
[8] = target: Cytochrome P450 2C9 (Homo sapiens, UniProt P11712)
Sequence of Cytochrome P450 2C9 (P11712 whole entry, the tested form may be a part): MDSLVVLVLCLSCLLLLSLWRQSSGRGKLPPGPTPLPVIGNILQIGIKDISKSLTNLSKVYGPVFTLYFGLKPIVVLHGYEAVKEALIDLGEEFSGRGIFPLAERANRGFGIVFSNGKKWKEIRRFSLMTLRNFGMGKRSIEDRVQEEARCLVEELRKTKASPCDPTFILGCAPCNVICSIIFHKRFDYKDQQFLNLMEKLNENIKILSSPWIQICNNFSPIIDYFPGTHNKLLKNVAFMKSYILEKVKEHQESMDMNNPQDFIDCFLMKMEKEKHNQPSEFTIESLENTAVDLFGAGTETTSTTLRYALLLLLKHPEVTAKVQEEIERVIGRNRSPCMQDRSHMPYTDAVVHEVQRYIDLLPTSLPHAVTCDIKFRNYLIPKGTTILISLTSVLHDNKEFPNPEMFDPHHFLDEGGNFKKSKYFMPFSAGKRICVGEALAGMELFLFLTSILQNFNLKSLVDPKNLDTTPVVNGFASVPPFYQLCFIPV

[9] = inhibitors of HIV Env-driven cell fusion, dose response, cherry-pick (AID 652057); type: functional, cell-based
[10] = ZM109 Env clade C HIV-1 fusion inhibitors, dose response, HeLa effector, CEM target cells, luciferase, cherry-pick (AID 652058); type: functional, cell-based
[11] = inhibitors of clade B AD8 Env fusion, dose response, cell-based, cherry-pick (AID 652062); type: functional;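 further: luciferase signal from cell-cell fusion driven by HIV-1 clade B AD8 Env; potency is for inhibitors of fusion seen as a drop in luminescence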
[12] = microbe, parasite or virus in culture; type: functional; details: Mycobacterium tuberculosis
[13] = target: T3, Ubiquitin-conjugating enzyme E2 N (Homo sapiens, UniProt P61088); type: functional;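 further: Dose-response confirmation in a TR-FRET assay detecting UBC13-driven polyubiquitin chain formation, inhibition measured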
T3 sequence (P61088 whole entry): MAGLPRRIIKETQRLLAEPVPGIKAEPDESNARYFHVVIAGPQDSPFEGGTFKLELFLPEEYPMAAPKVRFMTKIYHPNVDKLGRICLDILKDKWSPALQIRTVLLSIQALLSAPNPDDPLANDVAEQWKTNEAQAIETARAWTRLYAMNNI

[14] = growth suppression of PTEN-null colon cells, dose response, cell-based, HCT116 PTEN knockout (AID 1047); type: functional;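 further: HCT116 colon tumor cells with PTEN knocked out; cells exposed to compound for 60 hours before readout; potency for loss of cell viability measured by luminescence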
[15] = growth suppression of beta-catenin-knockout colon cells, dose response, cell-based, HCT116, human colon tumor (AID 1045); type: functional;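 further: HCT116 colon tumor cells with beta catenin knocked out; cells exposed to compound for 60 hours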
[16] = target: Nonstructural protein 1 (Influenza A virus, UniProt Q194T2); type: functional, Influenza A virus (A/California/07/2009(H1N1))
Sequence of Nonstructural protein 1 (Q194T2 whole entry): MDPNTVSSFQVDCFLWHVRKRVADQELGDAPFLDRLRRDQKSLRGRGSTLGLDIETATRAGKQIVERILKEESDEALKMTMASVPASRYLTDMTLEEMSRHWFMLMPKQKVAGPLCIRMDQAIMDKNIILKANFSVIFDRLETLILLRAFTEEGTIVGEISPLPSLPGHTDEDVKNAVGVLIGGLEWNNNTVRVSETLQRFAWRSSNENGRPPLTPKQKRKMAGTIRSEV

[17] = target: Cytochrome P450 2C19 (Homo sapiens, UniProt P33261); experiment: Cytochrome panel assay with activity outcomes. Panel member name: p450-cyp2c19 Compounds with AC50 equal or less than 10 uM are considered active; type: functional; details: read-out: AC50
[18] = NIH-3T3 fibroblast cytotoxicity, dose response, cytotoxicity control, cell-based, fluorescence, Alamar Blue, secondary assay (AID 2327); type: functional;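 further: NIH-3T3 mouse fibroblasts cultured with fluconazole at 8 µg/mL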
[19] = C. albicans growth with fluconazole, confirmation, fluorescence, retest (AID 2467); type: functional, cell-based
[20] = target: T4, DNA repair protein RAD52 homolog (Homo sapiens, UniProt P43351); type: functional, biochemical
T4 sequence (P43351 whole entry): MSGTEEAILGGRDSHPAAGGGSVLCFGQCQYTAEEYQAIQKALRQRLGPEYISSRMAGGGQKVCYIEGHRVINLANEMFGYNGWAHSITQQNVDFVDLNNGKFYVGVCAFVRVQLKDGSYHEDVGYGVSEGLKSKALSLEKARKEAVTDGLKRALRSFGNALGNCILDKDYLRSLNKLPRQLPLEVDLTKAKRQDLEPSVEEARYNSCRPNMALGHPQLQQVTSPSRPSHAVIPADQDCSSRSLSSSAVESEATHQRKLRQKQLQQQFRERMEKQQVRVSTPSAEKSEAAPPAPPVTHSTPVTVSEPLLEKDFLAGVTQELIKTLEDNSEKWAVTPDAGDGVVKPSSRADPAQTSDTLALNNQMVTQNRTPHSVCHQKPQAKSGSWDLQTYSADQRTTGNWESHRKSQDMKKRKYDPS

[21] = target: Paired box protein Pax-8 (Homo sapiens, UniProt Q06710); experiment: inhibitors of PAX8-driven TPO luciferase reporter, dose response, RMG-I cells, cherry-pick (AID 687027); type: functional, cell-based;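 further: luciferase reporter driven by Pax8 target thyroperoxidase promoter measured by SteadyGlo luminescence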
Sequence of Paired box protein Pax-8 (Q06710 whole entry): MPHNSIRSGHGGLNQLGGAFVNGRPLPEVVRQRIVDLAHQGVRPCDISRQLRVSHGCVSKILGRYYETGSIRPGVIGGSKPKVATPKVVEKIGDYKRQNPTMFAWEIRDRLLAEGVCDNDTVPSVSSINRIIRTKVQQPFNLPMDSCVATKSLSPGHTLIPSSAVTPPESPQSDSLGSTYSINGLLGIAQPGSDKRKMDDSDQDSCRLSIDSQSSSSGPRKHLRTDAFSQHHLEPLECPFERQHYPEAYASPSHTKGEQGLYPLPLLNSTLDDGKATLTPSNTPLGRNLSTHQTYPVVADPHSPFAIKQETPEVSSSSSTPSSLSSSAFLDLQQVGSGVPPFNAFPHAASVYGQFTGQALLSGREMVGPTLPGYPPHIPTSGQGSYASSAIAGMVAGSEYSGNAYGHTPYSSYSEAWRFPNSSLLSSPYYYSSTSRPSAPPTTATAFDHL

[22] = test system: H9c2; experiment: cells; type: functional, cell-based; details: Rattus norvegicus, H9c2, Myocardium;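 further: confirmatory concentration-response retest of ultra-high-throughput screening hits for modulation of myocardial damage; cell death induced by hydrogen peroxide oxidative stress; compound pretreatment for 60 min then peroxide exposure for 2 h; potency is for protecting the cells against peroxide damage rather than for killing them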
[23] = Shn3 3'UTR reporter inhibitors, dose response, cell-based, Clone20 osteoblasts, firefly luciferase, cherry-picked (AID 624132); type: functional;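 further: firefly luciferase luminescence from reporter carrying the Shn3 3'UTR in osteoblasts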
[24] = HepG2 cell cytotoxicity, dose response, cytotoxicity control for Shn3 inhibitor project, CellTiter-Glo, cherry-picked (AID 624134); type: functional, cell-based
[25] = control 3'UTR Renilla luciferase suppression, dose response, counter-screen for Shn3 inhibitor project, cell-based, Clone20-Shn3RL, cherry-picked (AID 624133); type: functional

COCCCn1c(=S)[nH]c2sc3c(c2c1=O)CCCS3
EC50 [1]: 66.8 µM (inactive) | EC50 [2]: > 79.4 µM (not active) | EC50 [3]: 26.7 µM (not active)

CCN(CC)S(=O)(=O)c1ccc(C(=O)NCc2ccc3c(c2)cc(C)n3C)cc1
EC50 [1]: 6.6 µM (active) | EC50 [2]: 15.3 µM (not active) | EC50 [3]: 6.71 µM (active) | IC50 [4]: > 66 µM (inactive) | IC50 [5]: > 66 µM (inactive)

O=C(CN1C(=O)C2C3CC(C(Br)C3Br)C2C1=O)Nc1ccc(C(=O)O)cc1 (stereo unspecified)
IC50 [6]: 62.5 µM (active)

Cc1ccc(OCCCn2c(=O)sc3ccccc32)cc1
AC50 [7]: 14.1 µM (inconclusive) | AC50 [8]: inconclusive

O=C(Cc1ccccc1)Nc1nnc(-c2ccco2)s1
EC50 [1]: > 79.4 µM (inactive) | EC50 [2]: > 79.4 µM (not active) | EC50 [3]: > 79.4 µM (not active)

CC(C)NC(=O)Nc1ccc2c(c1)CC(=O)N([C@H](C)CO)C[C@H](C)[C@H](CN(C)S(=O)(=O)c1ccccc1)O2
AC50 [9]: 8.61 µM (active) | AC50 [10]: 10.7 µM (active) | AC50 [11]: 35.9 µM (active)

Cc1nnc(NC(=O)c2ccc3ccccc3n2)s1
IC50 [6]: 36.8 µM (active)

C[C@@H]1CCCCCCCCC(=O)OCCN[C@H](C)CCCCCCCCC(=O)OCCN[C@H](C)CCCCCCCCC(=O)OCCN1
CC50 [12]: 26.5 µM (active) | IC50 [13]: > 20 µM (inactive)

CC1=CC=CN2CC(O)CN=C12.Cl (stereo unspecified)
AC50 [8]: inconclusive

CN1CCN(Cc2nc3ccccc3c(=O)n2Cc2nc(-c3ccc([N+](=O)[O-])cc3)cs2)CC1
EC50 [14]: 4.88 µM (active) | EC50 [15]: 7.87 µM (active) | IC50 [13]: > 20 µM (inactive)

CCSC1=NC(=O)/C(=C2/C=Cc3ccccc3N2CC)S1
IC50 [16]: 9.25 µM (active)

O=C(Nc1ccc(N=Nc2ccccc2)cc1)c1ccc(Cl)cc1Cl
AC50 [17]: 39.8 µM (inconclusive) | AC50 [8]: inconclusive

O=C(COc1cc(F)ccc1[N+](=O)[O-])Nc1ccc(N2CCCCC2)cc1
IC50 [16]: 21.3 µM (active)

Cc1c(Cc2ccccc2)c(=O)oc2c(CN(C)C)c(O)c(Cl)cc12
IC50 [6]: 33 µM (active)

CC(=O)Nc1ccc(S(=O)(=O)Nc2nc3ccccc3nc2Nc2ccccc2)cc1
IC50 [6]: 94.9 µM (active)

O=C(C[n+]1ccccc1)NN=Cc1cc(Br)ccc1O
IC50 [16]: 2.96 µM (active)

C#CCOCCOCCOCCNc1nc(N2CCOCC2)nc(N2CCN(C(=O)CCCCCCCCCCNC(=O)[C@@H]([C@H](C)CC)n3cc(CCCCCN)nn3)CC2)n1
IC50 [13]: > 20 µM (inactive)

COc1ccc(OC)c(-n2c(CN3CCC(C(N)=O)CC3)nc3ccccc3c2=O)c1
EC50 [18]: > 150 µM (inactive) | EC50 [19]: 3.29 µM (active)

C/N=C(\C[N+](=O)[O-])NCCSCc1ccc(CN(C)C)o1
AC50 [20]: 12.5 µM (active)

CC(C)CC#Cc1ccc2c(c1)O[C@H](CN(C)S(=O)(=O)c1ccc(F)cc1)[C@H](C)CN([C@@H](C)CO)S2(=O)=O
AC50 [9]: 26.6 µM (active) | AC50 [10]: 20.8 µM (active) | AC50 [21]: 9.6 µM (active) | AC50 [11]: 23.7 µM (active)

CC(=O)Oc1ccc2c(C)c(CC(C)O)c(=O)oc2c1 (stereo unspecified)
IC50 [6]: 62.4 µM (active)

COc1ccc(C2=NN(C(=N)S)C(c3ccccc3)C2)cc1 (stereo unspecified)
EC50 [1]: 8.24 µM (active) | EC50 [2]: > 79.4 µM (not active) | EC50 [3]: 8.07 µM (active)

O=C1Nc2ccccc2S/C1=C/NCc1ccccc1Cl
IC50 [6]: 5.63 µM (active)

CCN(CC)CCNC(=O)c1nn(-c2ccc(Cl)cc2)c2c1CCc1cc(OC)ccc1-2
AC50 [20]: 16.8 µM (active)

CCOc1ccc(C(C(=O)NCC2CCCO2)N(C(=O)c2snc(C(N)=O)c2N)c2ccccc2F)cc1 (stereo unspecified)
IC50 [13]: > 20 µM (inactive) | IC50 [22]: > 79 µM (inactive)

CCCOC(=O)/C(=C\c1ccc([N+](=O)[O-])o1)NC(=O)c1ccccc1
EC50 [18]: > 160 µM (inactive) | EC50 [19]: 0.174 µM (active) | CC50 [12]: 35.1 µM (active)

COc1ccc(CNC(=O)CSc2cc(=O)n(C)c3ccccc23)cc1
EC50 [1]: > 79.4 µM (inactive) | EC50 [2]: > 79.4 µM (not active) | EC50 [3]: > 79.4 µM (not active)

O=C(N/N=C/c1ccc(Cl)cc1Cl)Nc1ccccc1
EC50 [18]: > 160 µM (inactive) | EC50 [19]: > 38 µM (not active)

CC(C)c1ccc(OCC(=O)Nc2cccc(C(=O)Nc3ccccc3C(=O)O)c2)cc1
EC50 [18]: 16.9 µM (inconclusive) | EC50 [19]: 1.9 µM (active)

CCCS(=O)(=O)Nc1ccc(Nc2c3ccccc3nc3ccccc23)c(OC)c1
AC50 [23]: 3.39 µM (active) | AC50 [24]: 20.1 µM (active) | AC50 [25]: 1.03 µM (active) | AC50 [20]: 3.15 µM (active)

— ChEMBL document CHEMBL1201862, “PubChem BioAssay data set” (2004)
